The record followed here is the supplement of paper PMC11208160.

This data set can be described thus: recombinant UMI read abundance after kanamycin selection (control-corrected) (log10(CPM+1)); higher = more efficient recombination; extreme values may be limits of the assay; sequences stand for … in AGTGCAGAGAAAATCGGCCAGTTTTCTCTGCCTGCAGTCCGCATGCCGTGGGACCCCTTGGGTTCTAACCTGTTGCCTAGATTTATGCAGCGGACTGCCTTTCTCCCAAAGTGATAAACCGG…AGGTTGGTTTCACT; site = the 11-nt donor. Summed up: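 Under IPTG (0.07 mM) plus kanamycin, or without selection, Escherichia coli carrying a UMI-tagged donor and donor-binding-loop pair library and a target plasmid for the IS621 bridge recombinase were plated in two replicates. Recombinant UMIs were PCR-amplified across the donor–target junction and sequenced. Counts were converted to CPM, averaged over replicates, scaled by control-derived factors and reported as log10(CPM+1).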
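Further: IS621 bridge recombinase in Escherichia coli cells against a fixed T5 target plasmid.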

Turning to “GTAGTCCCATGGACCGGTTTTCCCGGTAATCCGTATTTGGT (site GTAGTCCCTAC)”, the “recombinant UMI read abundance (log10)” value came out at 0.588.

“GTAGTCGCATGGACCGGTTTTCCCGGTAATCCGTATTTGCT (site GTAGTCGCTAG)”: the “recombinant UMI read abundance (log10)” value is 2.87.

Turning to “GTAGTCGCATGGACCGGTTTTCCCGGTAATCCGTATTTGCT (site GTAGTCGCTCG)”, the “recombinant UMI read abundance (log10)” value was 1.77.

Regarding “GTAGTCGCATGGACCGGTTTTCCCGGTAATCCGTATTTGCT (site GTAGTCGCTGG)”, the “recombinant UMI read abundance (log10)” value worked out at 2.09.

In the case of “GTAGTCGCATGGACCGGTTTTCCCGGTAATCCGTATTTGCT (site GTAGTCGCTTG)”, the “recombinant UMI read abundance (log10)” value stood at 1.57.

As to “GTAGTCGCATGGACCGGTTTTCCCGGTAATCCGTATTTGGG (site GTAGTCGCTCA)”, the “recombinant UMI read abundance (log10)” value turned out to be 0.214.

Consider “GTAGTCGCATGGACCGGTTTTCCCGGTAATCCGTATTTGGG (site GTAGTCGCTCC)”, for which the “recombinant UMI read abundance (log10)” value amounted to 0.132.

With “GTAGTCGCATGGACCGGTTTTCCCGGTAATCCGTATTTGGG (site GTAGTCGCTCG)”, the “recombinant UMI read abundance (log10)” value came to 0.0493.

With “GTAGTCGCATGGACCGGTTTTCCCGGTAATCCGTATTTGGG (site GTAGTCGCTCT)”, the “recombinant UMI read abundance (log10)” value is 0.661.

On to “GTAGTTACATGGACCGGTTTTCCCGGTAATCCGTATTTGAC (site GTAGATACTGT)”, for which the “recombinant UMI read abundance (log10)” value was 2.18.

As to “GTAGTTACATGGACCGGTTTTCCCGGTAATCCGTATTTGAC (site GTAGCTACTGT)”, the “recombinant UMI read abundance (log10)” value was 1.23.

With “GTAGTTACATGGACCGGTTTTCCCGGTAATCCGTATTTGAC (site GTAGGTACTGT)”, the “recombinant UMI read abundance (log10)” value amounted to 0.575.

Regarding “GTAGTTACATGGACCGGTTTTCCCGGTAATCCGTATTTGAC (site GTAGTTACTGT)”, the “recombinant UMI read abundance (log10)” value amounted to 2.74.

Regarding “GTAGTTCCATGGACCGGTTTTCCCGGTAATCCGTATTTGGT (site GTAGTTCCTAC)”, the “recombinant UMI read abundance (log10)” value is 0.849.

Consider “GTAGTTCCATGGACCGGTTTTCCCGGTAATCCGTATTTGGT (site GTCGTTCCTAC)”, for which the “recombinant UMI read abundance (log10)” value is 0.

Regarding “GTAGTTCCATGGACCGGTTTTCCCGGTAATCCGTATTTGGT (site GTGGTTCCTAC)”, the “recombinant UMI read abundance (log10)” value was determined as 0.00522.

As to “GTAGTTCCATGGACCGGTTTTCCCGGTAATCCGTATTTGGT (site GTTGTTCCTAC)”, the “recombinant UMI read abundance (log10)” value amounted to 0.00774.

As to “GTATCAGCATGGACCGGTTTTCCCGGTAATCCGTATTTGTC (site GTATCAGCTGA)”, the “recombinant UMI read abundance (log10)” value was found to be 3.03.

Regarding “GTATCTACATGGACCGGTTTTCCCGGTAATCCGTATTTGCT (site GTATCTACTAG)”, the “recombinant UMI read abundance (log10)” value is 1.66.

“GTATCTCCATGGACCGGTTTTCCCGGTAATCCGTATTTGTA (site GTATCTCCTTA)”: the “recombinant UMI read abundance (log10)” value amounted to 0.705.

Consider “GTATGCACATGGACCGGTTTTCCCGGTAATCCGTATTTGTC (site GTATGCACTAA)”, for which the “recombinant UMI read abundance (log10)” value is 0.663.

Turning to “GTATGCACATGGACCGGTTTTCCCGGTAATCCGTATTTGTC (site GTATGCACTCA)”, the “recombinant UMI read abundance (log10)” value is 0.0163.

In the case of “GTATGCACATGGACCGGTTTTCCCGGTAATCCGTATTTGTC (site GTATGCACTGA)”, the “recombinant UMI read abundance (log10)” value came out at 3.13.

Take “GTATGCACATGGACCGGTTTTCCCGGTAATCCGTATTTGTC (site GTATGCACTTA)”: the “recombinant UMI read abundance (log10)” value came to 1.33.

With “GTATGCACATGGACCGGTTTTCCCGGTAATCCGTATTTGTT (site GTATGCACTAA)”, the “recombinant UMI read abundance (log10)” value is 1.32.

On to “GTATGCACATGGACCGGTTTTCCCGGTAATCCGTATTTGTT (site GTATGCACTCA)”, for which the “recombinant UMI read abundance (log10)” value is 0.25.

For “GTATGCACATGGACCGGTTTTCCCGGTAATCCGTATTTGTT (site GTATGCACTGA)”, the “recombinant UMI read abundance (log10)” value worked out at 1.66.

As for “GTATGCACATGGACCGGTTTTCCCGGTAATCCGTATTTGTT (site GTATGCACTTA)”, the “recombinant UMI read abundance (log10)” value stood at 0.606.

As for “GTATGTACATGGACCGGTTTTCCCGGTAATCCGTATTTGAC (site GTAAGTACTGT)”, the “recombinant UMI read abundance (log10)” value was found to be 0.262.
